Read-outs that look alike come from different tables or passages of the source.
Key:
[1] = cited from earlier work
[2] = Atropisomeric analysis of PCB 95 (enantiomeric fraction, EF) in tissues by chiral GC-ECD; type: in vivo, mice; conditions: racemic PCB 95 1.0 mg/kg oral, 24 h, EF = AE1/(AE1 + AE2)
Description: Adult male and female wild-type (WT) C57BL/6 mice, KO, and KI mice (4 months old) were exposed to racemic PCB 95. Mice were randomly assigned to exposure groups and received a single oral dose of PCB 95 (1.0 mg/kg) in stripped corn oil (10 mL/kg; lot# A0395699; cat# 801-03-7; Fisher Scientific) via gavage (5–7 mice per group). Control animals received corn oil alone (1–3 mice per group) to assess the potential background contamination with PCB 95. Animals were euthanized 24 h after PCB 95 exposure. Blood was collected from the heart and placed in pre-weighed glass vials with 80 μL of ethylenediaminetetraacetic acid solution (EDTA, 7.5%, w/w). The amount of blood in each vial was determined by weight prior to sample extraction. Adipose, brain, and liver tissues were excised from each animal and individually wrapped in aluminum foil. Samples were stored at −80 °C in separate plastic bags and shipped on dry ice to the University of Iowa for analysis.
Atropisomeric analyses of PCB 95 were performed with all samples using an Agilent 7890A gas chromatograph with a ^63Ni-μECD detector and a Chiralsil-Dex CB (25 m length, 250 μm inner diameter, 0.25 μm film thickness; Agilent, Santa Clara, CA, USA) following a published method with modifications.[48] The following temperature program was used for the atropisomeric analysis: 50 °C, hold for 1 min, 10 °C/min to 150 °C, hold for 65 min, 15 °C/min to 200 °C, and hold for 15 min. The injector and detector temperature was 250 °C, and the helium flow was 3.0 mL/min. The EF values of PCB 95 were calculated as EF = AE1/(AE1 + AE2) where AE1 and AE2 are the peak area of the first (E1) and the second eluting (E2) atropisomers, respectively. E1- and E2-PCB 95 correspond to aR- and aS-PCB 95, respectively.[16],[25]
Method blanks, blank tissue samples, and an ongoing precision and recovery standard were extracted in parallel with each sample batch. The method detection limits (MDLs) were determined based on method blanks (Table S3). Limits of quantification (LOQ) in different matrices were established based on the corresponding tissue blanks (Table S3). Surrogate standards, PCB 117 and 4′-159, were added to all samples to assess the precision and reproducibility of the analytical methods (Table S4). In addition, an ongoing precision and surrogate standard was in parallel extracted from both method and tissue blanks with each sample batch (Table S5). The resolution of atropisomers of PCB 95 on the Chiralsil Dex CB column was 1.27, calculated with the formula Rs = [tE2 – tE1)/(0.5 × (WE1 + WE2)], where tE1 and tE2 are the retention times of peaks 1 and 2, and WE1 and WE2 indicate the width of the peak E1 and E2. The EF value of the racemic standard of PCB 95 was 0.498 ± 0.004 (n = 7).
Levels of PCB 95 and its metabolites, expressed as ng per gram wet weight (ng/g), and EF values are reported as mean ± standard deviation (Tables S6 and S7). The statistical analyses were performed with two-way ANOVA with the Bonferroni model in GraphPad Prism 9.4.1 (Tables S8 and S9). In addition, OH-PCB metabolite profiles were compared using the similarity coefficient, cos θ (Tables S10 and S11).[49] The cos θ ranges from 0 to 1, where a value of 0 indicates completely different profiles and a value of 1 indicates identical profiles. The original data underlying this study are openly available through the Iowa Research Online repository at https://doi.org/10.25820/data.006613.

[3] = cited from earlier work; remark: listed apart in the source
[4] = collected in 2001 from Japanese women
[5] = FKI, female CYP2A6-humanized mice
[6] = FKO, female Cyp2abfgs-null mice
[7] = MKI, male CYP2A6-humanized mice

## Clc1ccc(Cl)c(-c2c(Cl)ccc(Cl)c2Cl)c1 [PCB 95, 2,2′,3,5′,6-pentachlorobiphenyl]
[1]; MARBLES cohort, detected in only one sample
  PCB 95 concentration in maternal serum: 0.1 ng/g wet weight
[1]; collected 2008 to 2009 during abdominal operations, Southeast China
  PCB 95 in human adipose tissue: below the limit of detection
[1]; [4]
  PCB 95 in breast adipose tissue: below the detection limit
  PCB 95 in serum: below the detection limit
[1]; older donors aged 58 to 80, United States
  Average PCB 95 levels in postmortem brain tissues: 0.13 ng/g
[1]; small human cohort from Belgium (N = 11)
  PCB 95 in human liver samples: below the limit of detection
[1]; younger donors aged 0 days to 1 year
  PCB 95 in postmortem brain tissues: not detected
[2]; [5]
  Enantiomeric fraction (EF) in adipose: 0.35 ± 0.02
  Enantiomeric fraction (EF) in blood: 0.28 ± 0.07
  Enantiomeric fraction (EF) in brain: 0.29 ± 0.01
  Enantiomeric fraction (EF) in liver: 0.24 ± 0.03
[2]; [6]
  Enantiomeric fraction (EF) in adipose: 0.41 ± 0.05
  Enantiomeric fraction (EF) in blood: 0.37 ± 0.07
  Enantiomeric fraction (EF) in brain: 0.39 ± 0.05
  Enantiomeric fraction (EF) in liver: 0.32 ± 0.06
[2]; FWT, female wildtype mice
  Enantiomeric fraction (EF) in adipose: 0.33 ± 0.02
  Enantiomeric fraction (EF) in blood: 0.32 ± 0.07
  Enantiomeric fraction (EF) in brain: 0.25 ± 0.03
  Enantiomeric fraction (EF) in liver: 0.20 ± 0.03
[2]; [7]
  Enantiomeric fraction (EF) in adipose: 0.36 ± 0.02
  Enantiomeric fraction (EF) in blood: 0.31 ± 0.03
  Enantiomeric fraction (EF) in brain: 0.32 ± 0.02
  Enantiomeric fraction (EF) in liver: 0.27 ± 0.03
[2]; MKO, male Cyp2abfgs-null mice
  Enantiomeric fraction (EF) in adipose: 0.38 ± 0.03
  Enantiomeric fraction (EF) in blood: 0.35 ± 0.04
  Enantiomeric fraction (EF) in brain: 0.34 ± 0.03
  Enantiomeric fraction (EF) in liver: 0.28 ± 0.04
[2]; MWT, male wildtype mice
  Enantiomeric fraction (EF) in adipose: 0.37 ± 0.01
  Enantiomeric fraction (EF) in blood: 0.28 ± 0.02
  Enantiomeric fraction (EF) in brain: 0.31 ± 0.02
  Enantiomeric fraction (EF) in liver: 0.26 ± 0.02
[3]; corresponding dams, exposure via diet through gestation and lactation
  Mean PCB 95 blood level: 16 ng/g
[3]; corresponding offspring on postnatal day 21
  PCB 95 levels in the liver: 150 ng/g wet weight
[3]; dams euthanized on postnatal day 21
  PCB 95 levels in brain: 47 ng/g
[3]; dams exposed during gestation and lactation, high dose 6.0 mg/kg bw/d
  PCB 95 levels in adipose tissue: 11,600 ng/g
[3]; dams exposed during gestation and lactation, low dose 0.1 mg/kg bw/d
  PCB 95 levels in adipose tissue: 170 ng/g
[3]; dams exposed orally during gestation and lactation, high dose 6.0 mg/kg bw/d
  PCB 95 levels in blood: 52 ng/g
[3]; dams exposed orally during gestation and lactation, low dose 0.1 mg/kg bw/d
  PCB 95 levels in blood: not detected
[3]; dams exposed throughout gestation and lactation
  PCB 95 levels in the liver: 120 ng/g wet weight
[3]; dams exposed to racemic PCB 95 during gestation and lactation, high dose 6.0 mg/kg bw/d
  PCB 95 levels in the liver: 700 ng/g
[3]; dams exposed to racemic PCB 95 during gestation and lactation, low dose 0.1 mg/kg bw/d
  PCB 95 levels in the liver: 12 ng/g
[3]; female mice, sub-chronic oral exposure, 0.1 mg/kg bw/d
  PCB 95 levels in adipose tissue: 1800 ng/g
[3]; female mice, sub-chronic oral exposure, 6.0 mg/kg bw/d
  PCB 95 levels in adipose tissue: 47,000 ng/g
[3]; female mice, subchronic oral exposure, 0.1 mg/kg bw/d
  PCB 95 levels in blood: 90 ng/g
[3]; female mice, subchronic oral exposure, 6.0 mg/kg bw/d
  PCB 95 levels in blood: 1200 ng/g
[3]; mice exposed orally to different doses throughout pregnancy, below the detection limit
  PCB 95 levels in brain: < 140 ng/g
[3]; offspring of pregnant mice exposed developmentally, postnatal day 7
  PCB 95 levels in brain: 50 ng/g
[3]; offspring of pregnant mice exposed developmentally, postnatal day 21
  PCB 95 levels in brain: 70 ng/g
[3]; postnatal day 21 pups exposed throughout gestation and lactation via the maternal diet
  PCB 95 levels in blood: 36 ng/g

Source: PMC10445290, “Enantiomeric Fractions Reveal Differences in the Atropselective Disposition of 2,2′,3,5′,6-Pentachlorobiphenyl (PCB 95) in Wildtype, Cyp2abfgs-Null, and CYP2A6-Humanized Mice” (Chemical Research in Toxicology, 2023)
